Where two headings read alike, the source gives them in different places.

Assay [1] addresses human CB1 receptor (hCB1) (Homo sapiens, UniProt P21554). Nature of the assay: cell-based. The class given is cell-based. The method, then: (§1) The ability of compounds to act as agonists or inverse agonists at human CB2 and CB1 receptors (hCB2, hCB1, respectively) and at the rat CB2 receptor (rCB2) was determined by measuring changes in intracellular cAMP levels. Chinese Hamster Ovary (CHO-K1) cell lines stably expressing hCB2 (Genebank: X74328) or hCB1 (Genebank: X54937) were purchased from Euroscreen (Gosselies, Belgium). The rat CB2 receptor was expressed from genomic DNA (provided by M. Abood, California Pacific Medical Center) in CHO-K1 cells from expression plasmid vector, pcDNA3.1.
(§2) Cell lines were grown in suspension in EX-CELL 302 CHO Serum-free medium (Sigma, cat #14324C) supplemented with 1% Fetal Bovine Serum, glutamine and non-essential amino-acids under 0.4 mg/mL G418 selection.
(§3) Receptor mediated responses were determined by measuring changes in intracellular cAMP using LANCE cAMP detection kit (cat #AD0264, Perkin Elmer, Wellesley, Mass.) based on time-resolved fluorescence resonance energy transfer (TR-FRET). Changes in cAMP were determined in cells pre-incubated with IBMX (isobutyl methylxanthine) and prestimulated with NKH-477 (a water soluble forskolin derivative, cat #1603, Tocris, Ellisville, Mo.) to increase basal cAMP levels as detailed below.
(§4) On the day of the experiment, cells were spun at low speed for 5 min at room temperature. The supernatant was removed and cells were resuspended in stimulation buffer (Hanks Buffered Salt Solution/5 mM HEPES, containing 0.5 mM IBMX (cat #17018, Sigma) and 0.02% BSA (Perkin-Elmer, cat #CR84-100)). Cell clumps were removed by filtering through cell strainer 40 μm (BD Falcon, Discovery Labware, Bedford, Mass.) and diluted to 2×10^5 cells/mL. Antibody supplied with the LANCE cAMP immunoassay kit was then added according to the manufacturer's instructions. An aliquot of cells was taken for un-induced controls. To the remaining cells was added NKH-477 (a water soluble forskolin derivative, Tocris cat #1603) to a final concentration of 2-8 μM. Cells were then incubated for 30 min at room temperature prior to adding to Proxiplates containing test compounds (final DMSO concentration was less than 0.5%) with a Multidrop bulk dispenser, followed by a sixty minute incubation at room temperature. The response was stopped by addition of the detection mix supplied with the LANCE kit. The reagents were allowed to equilibrate for three hours prior to reading on an Envision multi-mode detector (Perkin-Elmer). TR-FRET was measured using a 330-380 nm excitation filter, a 665 nm emission filter, dichroic mirror 380 nm and Z=1 mm. Cyclic AMP concentrations in each well were back-calculated from a cAMP standard curve run concurrently during each assay. Each plate contained 16 wells of forskolin stimulated cells and 16 wells of forskolin plus CP55,940-treated cells. Cells were treated with 1 μM CP55,940 (Tocris cat. #0949). Concentrations of cAMP were expressed as a percent of the difference of these two groups of wells. Concentration-response data including EC50 (the concentration of compound producing 50% of the maximal response) and intrinsic activity (the percent maximal activation compared to full activation by CP55,940) were determined using a four-parameter non-linear regression algorithm (Xlfit equation 251, IDBS).

In another assay the target is T1, rat CB2 receptor (rCB2) (Rattus norvegicus, UniProt Q9QZN9).
T1 sequence (Q9QZN9 1-360): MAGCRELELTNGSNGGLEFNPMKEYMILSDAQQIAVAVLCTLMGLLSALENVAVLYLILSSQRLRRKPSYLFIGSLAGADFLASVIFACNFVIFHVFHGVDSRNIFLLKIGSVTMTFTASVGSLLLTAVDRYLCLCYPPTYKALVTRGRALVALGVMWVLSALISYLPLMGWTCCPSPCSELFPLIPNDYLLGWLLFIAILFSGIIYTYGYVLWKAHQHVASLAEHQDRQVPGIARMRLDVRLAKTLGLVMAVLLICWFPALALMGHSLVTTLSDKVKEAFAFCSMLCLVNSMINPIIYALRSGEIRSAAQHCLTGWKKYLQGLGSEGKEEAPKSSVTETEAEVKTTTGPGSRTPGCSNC
Put plainly: cell-based. The assay is classed as cell-based. The conditions noted are these: agonist or inverse agonist at rCB2. As to the method:
as §1, §2, §3, §4

Where [2] appears, read: groups >100 nM-10 μM and >10 μM, cAMP, CHO-K1 hCB1, read-out: EC50 HCB1.

human CB1 receptor (hCB1), sequence (P21554 whole entry): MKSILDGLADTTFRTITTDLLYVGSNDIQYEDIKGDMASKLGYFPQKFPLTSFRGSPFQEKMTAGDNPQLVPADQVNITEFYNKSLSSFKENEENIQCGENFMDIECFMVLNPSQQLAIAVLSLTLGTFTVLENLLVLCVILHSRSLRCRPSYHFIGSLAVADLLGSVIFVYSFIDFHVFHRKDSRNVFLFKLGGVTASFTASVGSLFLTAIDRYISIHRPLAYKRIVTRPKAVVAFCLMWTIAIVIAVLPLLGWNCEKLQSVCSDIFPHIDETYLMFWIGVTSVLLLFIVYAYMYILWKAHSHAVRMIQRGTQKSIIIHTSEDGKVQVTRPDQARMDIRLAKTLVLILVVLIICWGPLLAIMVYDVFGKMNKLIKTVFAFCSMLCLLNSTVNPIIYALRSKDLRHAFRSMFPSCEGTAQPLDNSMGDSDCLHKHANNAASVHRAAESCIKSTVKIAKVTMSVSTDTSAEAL

Molecule `CNC(=O)[C@@H](NC(=O)c1nc(C(C)C)n2c1CN(C)CCC2)C(C)(C)C` [Compound 496, (S)-N-(3,3-dimethyl-1-(methylamino)-1-oxobutan-2-yl)-3-isopropyl-8-methyl-6,7,8,9-tetrahydro-5H-imidazo[1,5-a][1,4]diazepine-1-carboxamide] returned an EC50 in assay [1] of more than 10000 nM. For the same molecule, at rat CB2 receptor (rCB2), the “+/− RCB2” value was “+”.

The molecule `Cc1noc([C@@H](NC(=O)c2nc(-c3ccccc3)n3c2CN(CC2CC2)CC3)C(C)(C)C)n1` [Compound 88, (S)-7-(cyclopropylmethyl)-N-(2,2-dimethyl-1-(3-methyl-1,2,4-oxadiazol-5-yl)propyl)-3-phenyl-5,6,7,8-tetrahydroimidazo[1,5-a]pyrazine-1-carboxamide] registered an EC50 in assay [1] of more than 10000 nM. Besides, at rat CB2 receptor (rCB2), the “+/− RCB2” value was “−”.

Take `CC12CCC(C1)C(C)(C)C2NC(=O)c1nc(-c2ccccc2)n2c1CN(C(=O)c1ccco1)CC2` (stereo not shown) [Compound 122, 7-(furan-2-carbonyl)-3-phenyl-N-(1,3,3-trimethylbicyclo[2.2.1]heptan-2-yl)-5,6,7,8-tetrahydroimidazo[1,5-a]pyrazine-1-carboxamide]: the EC50 in assay [1] (setting [2]) is more than 10000 nM. The “+/− RCB2” value on rat CB2 receptor (rCB2) is “−”.

The molecule `CNC(=O)[C@@H](NC(=O)c1nc(-c2ccccc2)n2c1C[N+](C)(C)CC2)C(C)(C)C` [Compound 311, (S)-1-(3,3-dimethyl-1-(methylamino)-1-oxobutan-2-ylcarbamoyl)-7,7-dimethyl-3-phenyl-5,6,7,8-tetrahydroimidazo[1,5-a]pyrazin-7-ium iodide] returned an EC50 in assay [1] of more than 10000 nM.

`CC(C)(C)[C@@H](CO)NC(=O)c1nc(-c2ccccc2)n2c1CN(CC1CC1)CC2` [Compound 84, (S)-7-(cyclopropylmethyl)-N-(1-hydroxy-3,3-dimethylbutan-2-yl)-3-phenyl-5,6,7,8-tetrahydroimidazo[1,5-a]pyrazine-1-carboxamide] yielded an EC50 in assay [1] of more than 10000 nM.

In assay [1], `CNC(=O)[C@@H](NC(=O)c1nc(-c2ccccc2)n2c1CN(S(=O)(=O)c1ccc(C#N)cc1)CC2)C(C)(C)C` [Compound 108, (S)-7-(4-cyanophenylsulfonyl)-N-(3,3-dimethyl-1-(methylamino)-1-oxobutan-2-yl)-3-phenyl-5,6,7,8-tetrahydroimidazo[1,5-a]pyrazine-1-carboxamide] gave an EC50 of more than 10000 nM.

In assay [1], `CNC(=O)[C@@H](NC(=O)c1nc(Br)n2c1CN(C)CCC2)C(C)(C)C` [Compound 324, (S)-3-bromo-N-(3,3-dimethyl-1-(methylamino)-1-oxobutan-2-yl)-8-methyl-6,7,8,9-tetrahydro-5H-imidazo[1,5-a][1,4]diazepine-1-carboxamide] came in with an EC50 of more than 10000 nM.

Take `CNC(=O)[C@@H](NC(=O)c1nc(C2=CCCCO2)n2c1CN(C)CCC2)C(C)(C)C` [Compound 452, (S)-3-(3,4-dihydro-2H-pyran-6-yl)-N-(3,3-dimethyl-1-(metylamino)-1-oxobutan-2-yl)-8-methyl-6,7,8,9-tetrahydro-5H-imidazo[1,5-a][1,4]diazepine-1-carboxamide]: the “+/− RCB2” value on rat CB2 receptor (rCB2) is reported as “+”.

Turning to `CNC(=O)[C@@H](NC(=O)c1nc(C2CCCC2)n2c1CN(C)CCC2)C(C)(C)C` [Compound 497, (S)-3-cyclopentyl-N-(3,3-dimethyl-1-(methylamino)-1-oxobutan-2-yl)-8-methyl-6,7,8,9-tetrahydro-5H-imidazo[1,5-a][1,4]diazepine-1-carboxamide], the “+/− RCB2” value on rat CB2 receptor (rCB2) is “+”.

In assay [1], `CNC(=O)[C@@H](NC(=O)c1nc(-c2csc3ccccc23)n2c1CNCC2)C(C)(C)C` [Compound 20, (S)-3-(benzo[b]thiophen-3-yl)-N-(3,3-dimethyl-1-(methylamino)-1-oxobutan-2-yl)-5,6,7,8-tetrahydroimidazo[1,5-a]pyrazine-1-carboxamide] had an EC50 of more than 10000 nM.

Molecule `CNC(=O)[C@@H](NC(=O)c1nc(-c2ccccc2)n2c1CN(S(=O)(=O)c1ccc(C(F)(F)F)cc1)CC2)C(C)(C)C` [Compound 107, (S)-N-(3,3-dimethyl-1-(methylamino)-1-oxobutan-2-yl)-3-phenyl-7-(4-(trifluoromethyl)phenylsulfonyl)-5,6,7,8-tetrahydroimidazo[1,5-a]pyrazine-1-carboxamide] displayed an EC50 in assay [1] of more than 10000 nM.

On to `CNC(=O)[C@@H](NC(=O)c1nc(-c2ccsc2)n2c1CN(S(=O)(=O)c1ccc(F)cc1)CC2)C(C)(C)C` [Compound 109, (S)-N-(3,3-dimethyl-1-(methylamino)-1-oxobutan-2-yl)-7-(4-fluorophenylsulfonyl)-3-(thiophen-3-yl)-5,6,7,8-tetrahydroimidazo[1,5-a]pyrazine-1-carboxamide], for which the EC50 in assay [1] is more than 10000 nM.

On to `CNC(=O)[C@@H](NC(=O)c1nc(-c2ccsc2)n2c1CN(CC1CC1)CC2)C(C)(C)C` [Compound 74, (S)-7-(cyclopropylmethyl)-N-(3,3-dimethyl-1-(methylamino)-1-oxobutan-2-yl)-3-(thiophen-3-yl)-5,6,7,8-tetrahydroimidazo[1,5-a]pyrazine-1-carboxamide], for which the EC50 in assay [1] is more than 10000 nM.

As to `CNC(=O)[C@@H](NC(=O)c1nc(-c2ccc(Cl)cc2F)n2c1CN(C1CCNCC1)CCC2)C(C)(C)C` [Compound 526, (S)-3-(4-chloro-2-fluorophenyl)-N-(3,3-dimethyl-1-(methylamino)-1-oxobutan-2-yl)-8-(piperidin-4-yl)-6,7,8,9-tetrahydro-5H-imidazo[1,5-a][1,4]diazepine-1-carboxamide], the EC50 in assay [1] was more than 10000 nM.

`CNC(=O)[C@H](C)NC(=O)c1nc(-c2ccccc2)n2c1CN(C)CC2` [Compound 78, (S)-7-methyl-N-(1-(methylamino)-1-oxopropan-2-yl)-3-phenyl-5,6,7,8-tetrahydroimidazo[1,5-a]pyrazine-1-carboxamide]: the EC50 in assay [1] (setting [2]) is more than 10000 nM.

Take `CNC(=O)[C@@H](NC(=O)c1nc(-c2cscc2C)n2c1CN(C)CC2)C(C)(C)C` [Compound 81, (S)-N-(3,3-dimethyl-1-(methylamino)-1-oxobutan-2-yl)-7-methyl-3-(4-methylthiophen-3-yl)-5,6,7,8-tetrahydroimidazo[1,5-a]pyrazine-1-carboxamide]: in assay [1], the EC50 is more than 10000 nM.

On to `CNC(=O)[C@@H](NC(=O)c1nc(-c2ccsc2)n2c1CN(C)CC2)C(C)(C)C` [Compound 73, (S)-N-(3,3-dimethyl-1-(methylamino)-1-oxobutan-2-yl)-7-methyl-3-(thiophen-3-yl)-5,6,7,8-tetrahydroimidazo[1,5-a]pyrazine-1-carboxamide], for which the EC50 in assay [1] is more than 10000 nM.

In turn, `CNC(=O)[C@@H](NC(=O)c1nc(Br)n2c1CN(C)CC2)C(C)(C)C` [Compound 203, (S)-3-bromo-N-(3,3-dimethyl-1-(methylamino)-1-oxobutan-2-yl)-7-methyl-5,6,7,8-tetrahydroimidazo[1,5-a]pyrazine-1-carboxamide] yielded an EC50 in assay [1] of more than 10000 nM.

Consider `CC(C)(CO)CNC(=O)c1nc(-c2ccccc2)n2c1CN(CC1CC1)CC2` [Compound 83, 7-(cyclopropylmethyl)-N-(3-hydroxy-2,2-dimethylpropyl)-3-phenyl-5,6,7,8-tetrahydroimidazo[1,5-a]pyrazine-1-carboxamide], for which, in assay [1] (setting [2]), the EC50 was more than 10000 nM.

What is called EC50 is the concentration at which the effect is half-maximal.
